From PMC4281022 (Journal of medicinal chemistry, 2013)
“Also recorded” adds a separate entry of the source. Values belong to the compound of their own block, whether it stands above or below them.

Legend:
human CB1 [1] = biological target: T1, human CB1 (Homo sapiens, UniProt P21554); test: [3H]CP55940 radioligand displacement at CB1, membranes of CHO-K1 cells; assay type: binding; settings: ratio of Ki values
CB1 receptor = CB1 receptor (Mus musculus, UniProt P47746); test: Tetrad test: attenuation of central effects of Δ^9-THC; assay type: in vivo; settings: 10 mg/kg oral, ICR mice
human CB1 [2] = biological target: T1, human CB1; test: CB1 calcium mobilization assay, antagonist apparent affinity; assay type: cell-based

Sequence of CB1 receptor (P47746 whole entry): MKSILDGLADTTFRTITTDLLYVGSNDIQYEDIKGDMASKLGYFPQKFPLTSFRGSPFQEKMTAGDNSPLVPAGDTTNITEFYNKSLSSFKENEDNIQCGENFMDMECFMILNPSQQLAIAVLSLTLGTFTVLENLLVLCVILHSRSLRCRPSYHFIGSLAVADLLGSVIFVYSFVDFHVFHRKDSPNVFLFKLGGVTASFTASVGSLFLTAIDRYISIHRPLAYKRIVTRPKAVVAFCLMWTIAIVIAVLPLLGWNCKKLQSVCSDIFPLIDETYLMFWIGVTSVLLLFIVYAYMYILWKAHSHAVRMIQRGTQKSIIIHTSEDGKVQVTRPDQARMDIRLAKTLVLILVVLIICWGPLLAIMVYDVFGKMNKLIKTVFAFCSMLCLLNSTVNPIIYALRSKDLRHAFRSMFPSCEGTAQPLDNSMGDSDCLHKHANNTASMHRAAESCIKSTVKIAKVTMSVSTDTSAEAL
T1 sequence (P21554 whole entry): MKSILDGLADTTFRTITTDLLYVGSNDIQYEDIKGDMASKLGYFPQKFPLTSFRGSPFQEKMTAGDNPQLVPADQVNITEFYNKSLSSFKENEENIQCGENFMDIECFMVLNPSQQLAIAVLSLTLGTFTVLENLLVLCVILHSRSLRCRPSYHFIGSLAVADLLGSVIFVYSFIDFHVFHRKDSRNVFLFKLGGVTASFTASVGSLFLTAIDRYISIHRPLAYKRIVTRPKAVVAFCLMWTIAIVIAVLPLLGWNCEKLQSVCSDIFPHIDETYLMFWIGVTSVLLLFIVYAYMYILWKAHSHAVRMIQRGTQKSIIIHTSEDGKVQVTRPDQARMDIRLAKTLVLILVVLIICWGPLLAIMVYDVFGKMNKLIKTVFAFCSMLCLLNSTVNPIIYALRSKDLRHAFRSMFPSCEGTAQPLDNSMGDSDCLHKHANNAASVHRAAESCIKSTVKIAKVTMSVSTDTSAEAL

Selectivity for CB1 over CB2 (human CB1 [1]): > 50 fold
Effects in tetrad tests by itself (CB1 receptor; in combination with vehicle): did not produce any significant effects
Compound: CCCCC(=O)NC1CCN(c2ncnc3c2nc(-c2ccccc2Cl)n3-c2ccc(Cl)cc2)CC1 [Compound 9, N-{1-[8-(2-Chlorophenyl)-9-(4-chlorophenyl)-9H-purin-6-yl]piperidin-4-yl}pentanamide]
Reversal of the cannabimimetic effects of Δ^9-THC (tetrad) (CB1 receptor; 30 min before 30 mg/kg i.v. Δ^9-THC): without efficacy; also recorded: did not reverse any of the cannabimimetic effects of Δ^9-THC; also recorded: could not be reversed

Kb (human CB1 [2]): 789 nM
Compound: O=C(CCN1CCCCC1)NC1CCN(c2ncnc3c2nc(-c2ccccc2Cl)n3-c2ccc(Cl)cc2)CC1 [Compound 15, N-{1-[8-(2-Chlorophenyl)-9-(4-chlorophenyl)-9H-purin-6-yl]piperidin-4-yl}-3-(piperidin-1-yl)propanamide]

Activity in the calcium mobilization assay (human CB1 [2]): very active
Compound: O=S(=O)(NC1CCN(c2ncnc3c2nc(-c2ccccc2Cl)n3-c2ccc(Cl)cc2)CC1)C(F)(F)F [Compound 18, N-{1-[8-(2-chlorophenyl)-9-(4-chlorophenyl)-9H-purin-6-yl]piperidin-4-yl,}-1,1,1-trifluoromethanesulfonamide]

Compound: N-{1-[8-(2-chlorophenyl)-9-(4-chlorophenyl)-9H-purin-6-yl]piperidin-4-yl}aminosulfonamide [Compound 17]
Activity in the calcium mobilization assay (human CB1 [2]): did not have significant activity
